Where two headings read alike, the source gives them in different places.
Legend:
[1] = tested on: SARS-CoV-2-Nluc viruses; assay: microbe, parasite or virus in culture; assay type: cell-based
[2] = in vitro; details: African green monkey
[3] = in vitro; details: human, PrestoBlue
[4] = in vitro; assay type: cell-based; details: human
Experimental: The cytotoxicity of compounds was determined in A549-hACE2 cells in the following manner. Compounds (200 nL) were spotted onto 384-well Grenier plates prior to seeding 5000 A549-hACE2 cells/well in a volume of 40 μL culture medium. The plates were incubated at 37° C. for 48 hours with 5% CO2. On day 2, 40 μL of CellTiter-Glo (Promega) was added and mixed 5 times.

[5] = in vitro; details: hamster
[6] = in vitro; assay type: in vitro ADME, Human
Experimental: Duplicate aliquots of test compound or positive control substrate (GS-7340) were added to S9 stock diluted with 100 mM phosphate buffered saline, pH 7.4, to obtain a protein concentration of 1.0 mg/mL. The S9 metabolic reactions were initiated by the addition of the substrates to the S9 reaction mixture to a final concentration of 2 μM. At 0, 10, 20, 30, 60 and 120 min, 25 μL aliquots of the reaction mixture were transferred to plates containing 225 μl of IS/Q solution. After quenching, the plates were centrifuged at 3000×g for 30 minutes, and 150 μL aliquots of each supernatant were diluted with 150 μL water. Aliquots (10 μL) of the diluted supernatant were analyzed on a Thermo Q-Exactive mass spectrometer as described below.
Quantification of test compounds and controls was performed by analyte/internal standard peak area ratio (PAR) values measured on a Thermo Q-Exactive mass spectrometer coupled to a Dionex UltiMate 3000 HPLC with a Leap Technologies HTC PAL autosampler. The column used was a Thermo Hypersil GOLD (1.9 μm particle size, 2.1×50 mm). Mobile phase A consisted of 0.1% (v/v) formic acid in water. Mobile phase B consisted of 0.1% (v/v) formic acid in acetonitrile. Elution of analytes was achieved by a series of linear gradients of acetonitrile in water containing 0.1% (v/v) formic acid. The mass spectrometer was calibrated on a weekly basis and mass tolerance of 5 ppm was used.

[7] = assay type: in vivo, Sprague-Dawley rats
Experimental: β-d-N^4-hydroxycytidine (NHC) was dosed orally by gavage to male Sprague-Dawley rats (n=3) at 10 mg/kg in 3.9% citric acid and 96.1% water, pH 2.8; Molnupiravir at 12.7 mg/kg in 2.5% kolliphor RH 40, 10% polyethylene glycol 300 and 87.5% water, pH 5.3. […]

[8] = target: T1, CES1 (Homo sapiens, UniProt P23141); assay: CES1/2 stability, CES1; assay type: in vitro ADME; details: CES1 Supersome preparation; Supersome preparations, CES 1.5 mg/ml, 2 μM substrate, pH 7.4, 37° C.; read-out: CES1 T1/2
T1 construct: purchased
T1 sequence (P23141 18-567): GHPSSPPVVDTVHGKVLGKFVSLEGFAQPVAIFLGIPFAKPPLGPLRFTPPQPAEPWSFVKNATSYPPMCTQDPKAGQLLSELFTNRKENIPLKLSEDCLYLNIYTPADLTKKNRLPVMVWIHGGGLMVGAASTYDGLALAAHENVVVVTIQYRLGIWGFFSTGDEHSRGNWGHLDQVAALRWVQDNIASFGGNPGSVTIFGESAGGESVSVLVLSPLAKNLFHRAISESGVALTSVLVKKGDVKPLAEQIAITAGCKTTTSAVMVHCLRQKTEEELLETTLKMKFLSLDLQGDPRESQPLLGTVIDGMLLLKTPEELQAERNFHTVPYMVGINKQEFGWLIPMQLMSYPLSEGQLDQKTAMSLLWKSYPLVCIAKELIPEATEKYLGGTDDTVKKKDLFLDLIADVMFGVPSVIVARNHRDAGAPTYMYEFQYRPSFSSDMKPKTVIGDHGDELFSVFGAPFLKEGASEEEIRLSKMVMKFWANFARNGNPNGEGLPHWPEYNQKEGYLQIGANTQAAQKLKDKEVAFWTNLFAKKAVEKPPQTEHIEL
Experimental: (§1) Test compounds or positive control substrates (oseltamivir for CES1 enzymes or procaine for CES2) were incubated with individual Supersome preparations (final CES concentration 1.5 mg/ml) in 0.1 M potassium phosphate buffer (pH 7.4) at 37° C. Substrates were added to a final concentration of 2 μM to initiate the reaction. The final incubation volume was 250 μL. Aliquots were removed after incubation for 0, 10, 30, 60 and 120 min. The reactions were stopped by the addition of IS/Q. Following protein precipitation and centrifugation, 150 μL of supernatant was diluted with an equal volume of water prior to LC-MS analysis. For procaine 150 μL of supernatant was dried down and reconstituted with 250 μL water. All samples were analyzed by LC-MS and the PAR values were used for quantification.

[9] = tested on: SARS-CoV-2; parameters: species or system ferrets; details: in vivo, po, 5 mg/kg
[10] = tested on: SARS-CoV-2 2019-nCoV/USA-WA1/2020; assay type: in vivo; details: in vivo
[11] = target: T2, CES2 (Homo sapiens, UniProt O00748); assay: CES1/2 stability, CES2; assay type: in vitro ADME; details: CES2 Supersome preparation; Supersome preparations, CES 1.5 mg/ml, 2 μM substrate, pH 7.4, 37° C.; read-out: CES2 T1/2
T2 construct: purchased
T2 sequence (O00748 27-559): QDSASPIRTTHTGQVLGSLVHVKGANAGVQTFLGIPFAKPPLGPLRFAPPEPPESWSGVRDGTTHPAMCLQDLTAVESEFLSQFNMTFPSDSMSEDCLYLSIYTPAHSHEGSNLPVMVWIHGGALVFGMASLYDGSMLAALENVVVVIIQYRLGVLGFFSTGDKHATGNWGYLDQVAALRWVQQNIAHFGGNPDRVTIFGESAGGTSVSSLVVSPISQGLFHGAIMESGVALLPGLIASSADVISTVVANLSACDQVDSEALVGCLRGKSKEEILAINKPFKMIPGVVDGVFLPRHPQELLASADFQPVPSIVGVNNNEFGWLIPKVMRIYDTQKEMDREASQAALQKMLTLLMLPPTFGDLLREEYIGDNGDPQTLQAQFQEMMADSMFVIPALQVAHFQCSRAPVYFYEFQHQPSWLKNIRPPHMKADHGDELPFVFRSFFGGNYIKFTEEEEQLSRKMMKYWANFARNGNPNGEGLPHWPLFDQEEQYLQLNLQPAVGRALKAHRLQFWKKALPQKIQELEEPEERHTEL
Experimental: as §1

[12] = Plasma stability; details: human
[13] = tested on: RSV-Fluc (Respiratory Syncytial virus strain A2 containing the firefly luciferase reporter); assay: microbe, parasite or virus in culture; assay type: cell-based; details: human respiratory syncytial virus, 72 h, NHBE cells, three days
[14] = tested on: RSV strain A2; assay: RSV antiviral assay (Hep2), EC50-Hep2/B1-384; assay type: cell-based; details: human respiratory syncytial virus, HEp-2, 96 h; Hep2 cells, 4 days, Cell-Titer Glo
[15] = male, Sprague-Dawley, rat, in vivo, po, 12.7 mg/kg
[16] = Severe acute respiratory syndrome coronavirus 2, 48 h, read-out: SARS-CoV2 EC50

Structure (SMILES) | EC50 [1, 16] [nM] | EC50 [13] [nM] | CC50 at 48 h [4] [nM] | EC50 [14] [nM] | other results
CCC(CC)COC(=O)[C@H](C)N[P@](=O)(OC[C@H]1O[C@@](C#N)(c2ccc3c(N)ncnn23)[C@H](O)[C@@H]1O)Oc1ccccc1 [Remdesivir] |  |  |  |  | EC50 ([1]; Severe acute respiratory syndrome coronavirus 2, host cells A549-ACE2, read-out: EC50, WA1/2020-nano luciferase): 67 nM; CC50 [2]: > 100000 nM; CC50 ([3]; CC50, DF2 HAE, primary diseased (asthma) HAE donor DF2, 72 hours): > 33000 nM; CC50 ([3]; CC50, M2 HAE, primary HAE donor M2, 72 hours): 102000 nM; CC50 ([3]; CC50, M6 HAE, primary HAE donor M6, 72 hours): > 100000 nM; CC50 ([4]; host cells A549-ACE2, read-out: CC50, A549-ACE2): > 16700 nM; CC50 [5]: > 100000 nM
O=c1nc(NO)ccn1[C@@H]1O[C@H](CO)[C@@H](O)[C@H]1O [NHC, β-d-N^4-hydroxycytidine] |  |  |  |  | Human GI S9 T1/2 ([6]; 2 μM substrate, 1.0 mg/mL protein, pH 7.4): >700 min; NHC AUCinf. ([7]; male Sprague-Dawley rats, plasma, oral NHC 10 mg/kg): 8.48 µM·h; Cmax ([7]; male Sprague-Dawley rats, plasma, oral NHC 10 mg/kg, read-out: NHC Cmax): 3.13 µM; NHC F % (based on NHC mg-eq dose) ([7]; male Sprague-Dawley rats, oral NHC 10 mg/kg): 37.0%
CC(C)C(=O)OC[C@H]1O[C@@H](n2ccc(NO)nc2=O)[C@H](O)[C@@H]1O [Molnupiravir, reference compound] |  |  |  |  | half-life at 2 μM ([6]; human, s9, pH 7.4): > 700 min; half-life at 2 μM [8]: 30 to 51 min; Cmax [7, 15]: 4.09 µM; NHC AUCinf. [7, 15]: 8.96 µM·h; NHC F % (based on NHC mg-eq dose) [7, 15]: 39.1%; NHC F % (based on molnupiravir dose) [7, 15]: 30.8%; Change from vehicle, nasal lavage AUC(0-96) PFU/mL [9]: −2.34 log10; Change from vehicle, nasal lavage AUC(0-96) RNA copies/μL [9]: −0.87 log10; Change from vehicle, nasal turbinate terminal PFU/mL [9]: −3.79 log10; Change from vehicle, nasal turbinate terminal RNA copies/μL [9]: −2.68 log10; Clinical signs versus vehicle animals [10]: No significant differences in clinical signs; Shed virus load (nasal lavages) versus vehicle [10]: lower in all treated animals than in the vehicle group; Viral RNA copies in nasal lavages and turbinates versus vehicle [10]: statistically significant mean reduction; Virus burden in the turbinates [10]: reduced burden in the turbinates; half-life at 2 μM [11]: 9.8 min; half-life at 2 μM [12]: 51 min
N#C[C@@]1(c2ccc3c(N)ncnn23)O[C@H](COC(=O)C2CC3CCCC3C2)[C@@H](O)[C@H]1O (stereo partly drawn) [Compound 24, ((2R,3S,4R,5R)-5-(4-aminopyrrolo[2,1-f][1,2,4]triazin-7-yl)-5-cyano-3,4-dihydroxytetrahydrofuran-2-yl)methyl octahydropentalene-2-carboxylate] | 800 | 801 | > 10000 | 185 | 
CCCCCCCC(=O)OC[C@H]1O[C@@](C#N)(c2ccc3c(N)ncnn23)[C@H](O)[C@@H]1O [Compound 20, ((2R,3S,4R,5R)-5-(4-aminopyrrolo[2,1-f][1,2,4]triazin-7-yl)-5-cyano-3,4-dihydroxytetrahydrofuran-2-yl)methyl octanoate] | 610 | 841 | > 10000 | 272 | 
CC(=O)OC[C@H]1O[C@@](C#N)(c2ccc3c(N)ncnn23)[C@H](OC(C)=O)[C@@H]1OC(C)=O [Compound 2, (2R,3R,4R,5R)-5-(acetoxymethyl)-2-(4-aminopyrrolo[2,1-f][1,2,4]triazin-7-yl)-2-cyanotetrahydrofuran-3,4-diyl diacetate] | 1900 | 287 | > 50000 | 537 | 
CCC(=O)OC[C@H]1O[C@@](C#N)(c2ccc3c(N)ncnn23)[C@H](OC(=O)CC)[C@@H]1OC(=O)CC [Compound 3, (2R,3R,4R,5R)-2-(4-aminopyrrolo[2,1-f][1,2,4]triazin-7-yl)-2-cyano-5-((propionyloxy)methyl)tetrahydrofuran-3,4-diyl dipropionate] | 3100 | 831 | > 100000 | 425 | 
CC(C)(C)C(=O)OC[C@H]1O[C@@](C#N)(c2ccc3c(N)ncnn23)[C@H](O)[C@@H]1O [Compound 32, ((2R,3S,4R,5R)-5-(4-aminopyrrolo[2,1-f][1,2,4]triazin-7-yl)-5-cyano-3,4-dihydroxytetrahydrofuran-2-yl)methyl pivalate] | 2320 | 581 | > 50000 | 590 | 
CC(C)C(=O)O[C@H]1[C@@H](OC(=O)C(C)C)[C@](C#N)(c2ccc3c(N)ncnn23)O[C@@H]1COC(=O)[C@@H](N)C(C)C [Compound 12, (2R,3R,4R,5R)-5-(((L-valyl)oxy)methyl)-2-(4-aminopyrrolo[2,1-f][1,2,4]triazin-7-yl)-2-cyanotetrahydrofuran-3,4-diylbis(2-methylpropanoate)] | 3300 | 169 | > 50000 | 420 | 
N#C[C@@]1(c2ccc3c(N)ncnn23)O[C@H](COC(=O)C2CCCCC2)[C@@H](O)[C@H]1O [Compound 17, ((2R,3S,4R,5R)-5-(4-aminopyrrolo[2,1-f][1,2,4]triazin-7-yl)-5-cyano-3,4-dihydroxytetrahydrofuran-2-yl)methyl cyclohexanecarboxylate] | 790 | 1180 | > 10000 | 213 | 

Reference: patent US11926645B2, “Compounds and methods for treatment of viral infections” (priority 2020, dated 2024)
